The values that follow come from patent EP0333005A1, “Light-sensitive dialkoxybenzenediazonium compound, method for its preparation and its use” (priority 1988, dated 1989).

A short description of this series: Solubility in isopropanol/formic acid. The format is physicochemical. The conditions noted are these: Isopropanol/Ameisensäure (9:1), 20 °C. As for the experimental part: So beträgt die Löslichkeit in der Form des 2,5-Diethoxy-4-thio(4′-methylphenyl)benzoldiazonium-sulfoisophthalats in Isopropanol/Ameisensäure (9:1) bei 20 °C 7,3 g/l, wogegen die entsprechende erfindungsgemäße Verbindung der Formel I sich zu 12,6 g/l bei 20 °C löst. Bei den bekannten Sulfoisophtalaten müssen daher zur besseren Lösung Löslichkeit verleihende Verbindungen zugesetzt werden.

In the case of `CCOc1cc(Sc2ccc(C)cc2)c(OCC)cc1[N+]#N` [2,5-Diethoxy-4-thio(4′-methylphenyl)benzoldiazonium-sulfoisophthalat, reference compound], the Löslichkeit is 7,3 g/l.

`CCOc1cc(Sc2ccc(C)cc2)c(OCC)cc1[N+]#N` [Beispiel 1, 2,5-Diethoxy-4-thio(4′-methylphenyl)benzoldiazonium-sulfosalicylat]: the Löslichkeit (listed as entsprechende erfindungsgemäße Verbindung der Formel I) is 12,6 g/l.
